From ChEMBL document CHEMBL1141944, “A synthesis of 3-deoxydihydrolycoricidine: refinement of a structurally minimum pancratistatin pharmacophore” (Bioorg Med Chem Lett, 2005)
The source made the active and inactive calls. The calls are words filed in the database; no cut-off is given here.

Columns and labels:
Assay type in all cases: functional, cell-based
[1] = system: MCF7; assay: Induction of apoptosis in human breast carcinoma MCF7 cell line
[2] = system: Jurkat; assay: Induction of apoptosis in human Jurkat […] cell line
[3] = system: MCF7; assay: Antitumor activity in human breast carcinoma MCF7 cell line at 1 to 10 uM
[4] = system: Jurkat; assay: Antitumor activity in human Jurkat […] cell line at 1 to 10 uM

O=C1N[C@H]2[C@H](O)[C@H](O)[C@@H](O)[C@H](O)[C@@H]2c2cc3c(c(O)c21)OCO3
Activity [1]: Active | Activity [2]: Active

O=C1N[C@H]2[C@H](O)C[C@@H](O)C[C@@H]2c2cc3c(cc21)OCO3
Activity [3]: inactive | Activity [4]: inactive | Activity [1]: inactive | Activity [2]: inactive
